According to PubChem BioAssay (NCI):
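Tested at 5 concentrations; 48 h exposure; 96-well plates; endpoints linearly interpolated, else capped at highest concentration. GI50 is the concentration that inhibits growth by half. Definition used: TGI = concentration required for complete inhibition of growth.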

Columns and labels:
Assay in all cases: growth of human tumour cells (NCI), 48 h; in the data active = GI50 below about 0.43 µM; inactive = the rest
[1] = system: COLO 205 colon
[2] = system: HCT-15 colon
[3] = system: OVCAR-4 ovarian
[4] = system: OVCAR-5 ovarian
[5] = system: HCT-116 colon
[6] = system: HOP-92 NSCLC
[7] = system: NCI-H460 lung
[8] = system: MOLT-4 leukemia
[9] = system: RPMI-8226 leukemia
[10] = system: SK-MEL-2 melanoma
[11] = system: T-47D breast
[12] = system: UO-31 renal
[13] = system: HT29 colon
[14] = system: ACHN renal
[15] = system: MCF7 breast
[16] = system: K-562 leukemia
[17] = system: SNB-75 CNS
[18] = system: SF-295 CNS
[19] = system: TK-10 renal
[20] = system: U251 CNS
[21] = system: OVCAR-8 ovarian
[22] = system: NCI-H23 lung
[23] = system: EKVX NSCLC
[24] = system: KM12 colon
[25] = system: LOX IMVI melanoma
[26] = system: SN12C renal
[27] = system: HCC-2998 colon
[28] = system: HOP-62 NSCLC
[29] = system: HS 578T breast

COc1ccc2cc([C@H](C)C(=O)NCc3ccccc3)ccc2c1
79.2 µM: TGI [6]
7.16 µM: TGI [17]
14 µM: TGI [1]
> 100 µM: TGI [2] | TGI [3] | TGI [4] | TGI [5] | TGI [7] | TGI [8] | TGI [9] | TGI [11] | TGI [13] | TGI [14] | TGI [15] | TGI [16] | TGI [19] | TGI [21] | TGI [22] | TGI [23] | TGI [24] | TGI [25] | TGI [26] | TGI [27]
51.7 µM: TGI [29]
76 µM: TGI [28]
16 µM: TGI [18]
73.9 µM: TGI [20]
34.7 µM: TGI [10]
73.4 µM: TGI [12]
inactive: GI50 [1] 3.03 µM | GI50 [2] 3.28 µM | GI50 [3] 49.3 µM | GI50 [4] 7.84 µM | GI50 [5] 5.21 µM | GI50 [6] 7.87 µM | GI50 [7] 3.83 µM | GI50 [8] 4.19 µM | GI50 [9] 5.09 µM | GI50 [10] 3.93 µM | GI50 [11] 4.75 µM | GI50 [12] 4.35 µM | GI50 [13] 3.08 µM | GI50 [14] 5.93 µM | GI50 [15] 3.39 µM | GI50 [16] 2.19 µM | GI50 [17] 1.68 µM | GI50 [18] 3.23 µM | GI50 [19] 13 µM | GI50 [20] 3.95 µM | GI50 [21] 5.29 µM | GI50 [22] 5.48 µM | GI50 [23] 3.82 µM | GI50 [24] 4.56 µM | GI50 [25] 5.03 µM | GI50 [26] 4.26 µM | GI50 [27] 6.89 µM | GI50 [28] 4.02 µM | GI50 [29] 3.11 µM
